US12180187B2, “1-phenyl-5-azinylpyrazolyl-3-oxyalkyl acids and their use for controlling unwanted plant growth” (BAYER AKTIENGESELLSCHAFT, priority 2019, dated 2024)

Experiments:
[1] = test system: POAAN; assay: Post-emergence action against POAAN, 1.28 kg/ha; format: in vivo, Poa annua; settings: dosage 1280 g/ha, visual rating about 3 weeks after treatment vs untreated controls
In short: (§1)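 Weeds grown in sandy loam in a greenhouse were sprayed at the one-leaf stage, 2–3 weeks after sowing, with WP or EC formulations in water containing 0.5% additive at 600 L/ha. About 3 weeks later, damage was scored visually versus untreated controls (0% = like control, 100% = dead).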

[2] = test system: POAAN; assay: Pre-emergence action against POAAN, 1280 g/ha; format: in vivo, Poa annua; settings: visual scoring after about 3 weeks vs untreated controls, 100% = plants have died, 0% = like control plants
In short: (§2)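 Soil-surface application after sowing, before emergence: WP or EC formulations in water with 0.5% additive, 600 litres per hectare, onto sandy loam pots. Damage rated visually in % relative to untreated plants after roughly 3 weeks in a greenhouse.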

[3] = test system: KCHSC; assay: Pre-emergence action against KCHSC, 1280 g/ha; format: in vivo, Bassia scoparia; settings: scored visually after about 3 weeks vs untreated controls (100% = plants have died)
In short: as §2

[4] = test system: AMARE; assay: Pre-emergence action against AMARE, 1280 g/ha; format: in vivo, Amaranthus retroflexus; settings: scored visually after about 3 weeks vs untreated controls (100% = plants have died)
In short: as §2

[5] = test system: ABUTH; assay: Post-emergence action against ABUTH, 1.28 kg/ha; format: in vivo, Abutilon theophrasti; settings: dosage 1280 g/ha, visual rating about 3 weeks after treatment vs untreated controls (100% = plants died)
In short: as §1

[6] = test system: MATIN; assay: Post-emergence action against MATIN, 1.28 kg/ha; format: in vivo, Tripleurospermum inodorum (Matricaria inodora); settings: dosage 1280 g/ha, visual rating about 3 weeks after treatment vs untreated controls (100% = plants died)
In short: as §1

[7] = test system: KCHSC; assay: Post-emergence action against KCHSC, 1.28 kg/ha; format: in vivo, Bassia scoparia; settings: dosage 1280 g/ha, visual rating about 3 weeks after treatment vs untreated controls (100% = plants died)
In short: as §1

[8] = test system: LOLRI; assay: Post-emergence action against LOLRI, 1.28 kg/ha; format: in vivo, Lolium rigidum; settings: dosage 1280 g/ha, visual rating about 3 weeks after treatment vs untreated controls
In short: as §1

[9] = test system: MATIN; assay: Pre-emergence action at 320 g/ha against MATIN; format: in vivo, Tripleurospermum inodorum (Matricaria inodora); settings: visual scoring after about 3 weeks vs untreated controls
In short: (§3)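 Weed and crop seeds sown in pots and covered with soil; WP or EC formulations sprayed pre-emergence onto the soil surface at 320 g/ha with 0.5% additive in 600 l/ha water. Kept in greenhouse; after about 3 weeks activity scored visually as % versus untreated controls (100% = plants dead, 0% = as control).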

[10] = test system: SETVI; assay: Pre-emergence action at 320 g/ha against SETVI; format: in vivo, Setaria viridis; settings: visual scoring after about 3 weeks vs untreated controls
In short: as §3

[11] = test system: AVEFA; assay: Pre-emergence action at 320 g/ha against AVEFA; format: in vivo; settings: visual scoring after about 3 weeks vs untreated controls
In short: as §3

[12] = test system: MATIN; assay: Pre-emergence action against MATIN, 1280 g/ha; format: in vivo, Tripleurospermum inodorum (Matricaria inodora); settings: scored visually after about 3 weeks vs untreated controls (100% = plants have died)
In short: as §2

[13] = test system: SETVI; assay: Post-emergence action against SETVI, 1.28 kg/ha; format: in vivo, Setaria viridis; settings: dosage 1280 g/ha, visual rating about 3 weeks after treatment vs untreated controls
In short: as §1

[14] = test system: AMARE; assay: Pre-emergence action at 320 g/ha against AMARE; format: in vivo, Amaranthus retroflexus; settings: visual scoring after about 3 weeks vs untreated controls
In short: as §3

[15] = test system: VIOTR; assay: Pre-emergence action at 320 g/ha against VIOTR; format: in vivo, Viola tricolor; settings: dosage 320 g/ha
In short: as §3

[16] = test system: VERPE; assay: Post-emergence action against VERPE, 1.28 kg/ha; format: in vivo, Veronica persica; settings: dosage 1280 g/ha, visual rating about 3 weeks after treatment vs untreated controls (100% = plants died)
In short: as §1

[17] = test system: LOLRI; assay: Pre-emergence action against LOLRI, 1280 g/ha; format: in vivo, Lolium rigidum; settings: visual scoring after about 3 weeks vs untreated controls, 100% = plants have died, 0% = like control plants
In short: as §2

[18] = test system: AMARE; assay: Post-emergence action against AMARE, 1.28 kg/ha; format: in vivo, Amaranthus retroflexus; settings: dosage 1280 g/ha, visual rating about 3 weeks after treatment vs untreated controls (100% = plants died)
In short: as §1

[19] = test system: ECHGC; assay: Pre-emergence action at 320 g/ha against ECHGC; format: in vivo, Echinochloa crus-galli; settings: visual scoring after about 3 weeks vs untreated controls
Text: b) Seeds of monocotyledonous and dicotyledonous weed plants and crop plants are placed in plastic or organic planting pots and covered with soil. The compounds of the invention, formulated in the form of wettable powders (WP) or as emulsion concentrates (EC), are then applied onto the surface of the covering soil as aqueous suspension or emulsion with addition of 0.5% additive at a water application rate of 600 l/ha (converted). After the treatment, the pots are placed in a greenhouse and kept under good growth conditions for the trial plants. After about 3 weeks, the effect of the preparations is scored visually in comparison with untreated controls as percentages. For example, 100% activity=the plants have died, 0% activity=like control plants. Tables 13 to 26 below show the effects of selected compounds of the general formula (I) on various harmful plants and at an application rate corresponding to 320 g/ha, which were obtained by the experimental procedure mentioned above.

[20] = test system: ALOMY; assay: Post-emergence action against ALOMY, 1.28 kg/ha; format: in vivo, Alopecurus myosuroides; settings: dosage 1280 g/ha, visual rating about 3 weeks after treatment vs untreated controls
In short: as §1

[21] = test system: STEME; assay: Pre-emergence action against STEME, 1280 g/ha; format: in vivo, Stellaria media; settings: scored visually after about 3 weeks vs untreated controls (100% = plants have died)
In short: as §2

[22] = test system: ECHCG; assay: Post-emergence action against ECHCG, 1.28 kg/ha; format: in vivo, Echinochloa crus-galli; settings: dosage 1280 g/ha, visual rating about 3 weeks after treatment vs untreated controls
In short: as §1

[23] = test system: POLCO; assay: Pre-emergence action at 320 g/ha against POLCO; format: in vivo, Fallopia convolvulus (Polygonum convolvulus); settings: visual scoring after about 3 weeks vs untreated controls
In short: as §3

[24] = test system: VERPE; assay: Pre-emergence action at 320 g/ha against VERPE; format: in vivo, Veronica persica; settings: visual scoring after about 3 weeks vs untreated controls
In short: as §3

[25] = test system: ALOMY; assay: Pre-emergence action at 320 g/ha against ALOMY; format: in vivo, Alopecurus myosuroides; settings: scored visually after about 3 weeks vs untreated controls (100% = plants have died)
In short: as §3

[26] = test system: ABUTH; assay: Pre-emergence action against ABUTH, 1280 g/ha; format: in vivo, Abutilon theophrasti; settings: scored visually after about 3 weeks vs untreated controls (100% = plants have died)
Text: 1. Pre-Emergence Herbicidal Effect and Crop Plant Compatibility a) Seeds of mono- and dicotyledonous weed plants are placed in plastic pots in sandy loam soil (doubly sown with one species each of mono- or dicotyledonous weed plants per pot) and covered with soil. The compounds of the invention, formulated in the form of wettable powders (WP) or as emulsion concentrates (EC), are then applied onto the surface of the covering soil as aqueous suspension or emulsion with addition of 0.5% additive at a water application rate equivalent to 600 litres per hectare. After the treatment, the pots are placed in a greenhouse and kept under good growth conditions for the trial plants. After about 3 weeks, the effect of the preparations is scored visually in comparison with untreated controls as percentages. For example, 100% activity=the plants have died, 0% activity=like control plants. 1. Pre-Emergence Effectiveness Tables 1 to 12 below show the effects of selected compounds of the general formula (I) according to Tables 1 and 2 on various harmful plants and at an application rate corresponding to 1280 g/ha, which were obtained by the experimental procedure mentioned above.

[27] = test system: SETVI; assay: Pre-emergence action against SETVI, 1280 g/ha; format: in vivo, Setaria viridis; settings: visual scoring after about 3 weeks vs untreated controls, 100% = plants have died, 0% = like control plants
In short: as §2

[28] = test system: STEME; assay: Post-emergence action against STEME, 1.28 kg/ha; format: in vivo, Stellaria media; settings: dosage 1280 g/ha, visual rating about 3 weeks after treatment vs untreated controls (100% = plants died)
In short: as §1

[29] = test system: ALOMY; assay: Pre-emergence action against ALOMY, 1280 g/ha; format: in vivo, Alopecurus myosuroides; settings: visual scoring after about 3 weeks vs untreated controls, 100% = plants have died, 0% = like control plants
In short: as §2

[30] = test system: DIGSA; assay: Post-emergence action against DIGSA, 1.28 kg/ha; format: in vivo, Digitaria sanguinalis; settings: dosage 1280 g/ha, visual rating about 3 weeks after treatment vs untreated controls
In short: as §1

[31] = test system: ECHCG; assay: Pre-emergence action against ECHCG, 1280 g/ha; format: in vivo, Echinochloa crus-galli; settings: visual scoring after about 3 weeks vs untreated controls, 100% = plants have died, 0% = like control plants
In short: as §2

[32] = test system: VERPE; assay: Pre-emergence action against VERPE, 1280 g/ha; format: in vivo, Veronica persica; settings: scored visually after about 3 weeks vs untreated controls (100% = plants have died)
In short: as §2

[33] = test system: LOLRI; assay: Pre-emergence action at 320 g/ha against LOLRI; format: in vivo, Lolium rigidum; settings: visual scoring after about 3 weeks vs untreated controls
In short: as §3

[34] = test system: DIGSA; assay: Pre-emergence action against DIGSA, 1280 g/ha; format: in vivo, Digitaria sanguinalis; settings: visual scoring after about 3 weeks vs untreated controls, 100% = plants have died, 0% = like control plants
In short: as §2

[35] = test system: DIGSA; assay: Pre-emergence action at 320 g/ha against DIGSA; format: in vivo, Digitaria sanguinalis; settings: visual scoring after about 3 weeks vs untreated controls
In short: as §3

O=C(COc1nn(-c2ccccc2F)c(-c2ccc(F)nc2)c1Br)OCCCl [VII-108]
100%: Post-emergence action against POAAN [1] | Pre-emergence action against POAAN [2] | Pre-emergence action against AMARE [4] | Post-emergence action against MATIN [6] | Post-emergence action against LOLRI [8] | Pre-emergence action against MATIN in % [9] | Pre-emergence action against SETVI in % [10] | Pre-emergence action against MATIN [12] | Pre-emergence action against AMARE in % [14] | Pre-emergence action against VIOTR in % [15] | Post-emergence action against VERPE [16] | Pre-emergence action against LOLRI [17] | Post-emergence action against AMARE [18] | Pre-emergence action against ECHGC in % [19] | Post-emergence action against ALOMY [20] | Pre-emergence action against STEME [21] | Post-emergence action against ECHCG [22] | Pre-emergence action against POLCO in % [23] | Pre-emergence action against VERPE in % [24] | Pre-emergence action at 320 g/ha against ALOMY in % [25] | Pre-emergence action against SETVI [27] | Post-emergence action against STEME [28] | Pre-emergence action against ALOMY [29] | Post-emergence action against DIGSA [30] | Pre-emergence action against ECHCG [31] | Pre-emergence action against VERPE [32] | Pre-emergence action against LOLRI in % [33] | Pre-emergence action against DIGSA [34] | Pre-emergence action against DIGSA in % [35]
80%: Pre-emergence action against AVEFA in % [11]
90%: Pre-emergence action against KCHSC [3] | Post-emergence action against ABUTH [5] | Post-emergence action against KCHSC [7] | Post-emergence action against SETVI [13] | Pre-emergence action against ABUTH [26]
